The structures appear in SMILES notation.

Chain of REV-ERBα LBD (P20393 with tags, fused parts or gaps DEL324-422): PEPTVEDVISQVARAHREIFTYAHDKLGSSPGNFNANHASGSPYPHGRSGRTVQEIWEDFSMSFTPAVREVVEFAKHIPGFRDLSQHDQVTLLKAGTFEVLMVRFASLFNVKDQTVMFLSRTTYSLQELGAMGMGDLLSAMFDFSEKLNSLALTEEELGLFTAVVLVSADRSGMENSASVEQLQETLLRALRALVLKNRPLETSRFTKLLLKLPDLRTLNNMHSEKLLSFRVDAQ
Chain of REV-ERBα LBD (Q9Y618 2335-2356 partner limits assumed): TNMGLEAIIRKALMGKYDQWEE

In the assay the target is REV-ERBα LBD (Homo sapiens, UniProt P20393, DEL324-422). The assay can be described thus: biochemical. Particulars: FRET assay; 6xHistag-REV-ERBα LBD with FITC-labeled SMRT corepressor peptide; read-out: REVERBα (Agonism of REV-ERBα, EC50). Put shortly:
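TR-FRET corepressor recruitment: 4 nM His-tagged human REV-ERBα LBD (residues 281-614 Δ324-422, or 381-579), 1 nM Tb-anti-His antibody and 400 nM FITC-SMRT peptide in pH 7.4 phosphate buffer with DTT; ligands in triplicate, 2 h at 4° C. 520/495 nm ratio fitted to sigmoidal dose-response for EC50.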
What is called EC50 is the concentration needed to bring the measured effect to its halfway point. `CC(C)(C)Cn1cc([C@H](NS(=O)(=O)C2CC2)C(F)F)c2cc(F)c(-c3ncccc3C(F)F)cc21` [Compound 111, (S)—N-(1-(6-(3-(difluoromethyl)pyridin-2-yl)-5-fluoro-1-neopentyl-1H-indol-3-yl)-2,2-difluoroethyl)cyclopropanesulfonamide]: the EC50 was below 100 nM.

With `CC(C)(C)Cn1cc([C@H](NS(=O)(=O)C2CC2)C(F)F)c2cc(F)c(-c3cncnc3C(F)(F)F)cc21` [Compound 112, (S)—N-(2,2-difluoro-1-(5-fluoro-1-neopentyl-6-(4-(trifluoromethyl)pyrimidin-5-yl)-1H-indol-3-yl)ethyl)cyclopropanesulfonamide], the EC50 is below 100 nM.

As to `CC(C)(C)Cn1cc([C@H](NS(=O)(=O)C2CC2)C(F)F)c2cc(F)c(-c3cnccc3C(F)(F)F)cc21` [Compound 113, (S)—N-(2,2-difluoro-1-(5-fluoro-1-neopentyl-6-(4-(trifluoromethyl)pyridin-3-yl)-1H-indol-3-yl)ethyl)cyclopropanesulfonamide], the EC50 is below 100 nM.

As to `CC(C)(C)Cn1cc([C@H](NS(=O)(=O)C2CC2)C(F)F)c2cc(F)c(-c3ccncc3C(F)(F)F)cc21` [Compound 114, (S)—N-(2,2-difluoro-1-(5-fluoro-1-neopentyl-6-(3-(trifluoromethyl)pyridin-4-yl)-1H-indol-3-yl)ethyl)cyclopropanesulfonamide], the EC50 was below 100 nM.

`CC(C)(C)Cn1cc([C@H](NS(=O)(=O)C2CC2)C(F)F)c2cc(F)c(-c3ncccc3C3CC3)cc21` [Compound 115, (S)—N-(1-(6-(3-cyclopropylpyridin-2-yl)-5-fluoro-1-neopentyl-1H-indol-3-yl)-2,2-difluoroethyl)cyclopropanesulfonamide]: the EC50 is below 100 nM.

As to `CC(C)(C)Cn1cc([C@H](NS(=O)(=O)C2CC2)C(F)F)c2cc(F)c(-c3c(F)cccc3C(F)F)cc21` [Compound 116, N-((1S)-1-(6-(2-(difluoromethyl)-6-fluorophenyl)-5-fluoro-1-neopentyl-1H-indol-3-yl)-2,2-difluoroethyl)cyclopropanesulfonamide], the EC50 was below 100 nM.

Turning to `CC(C)(C)Cn1cc([C@H](NS(=O)(=O)C2CC2)C(F)F)c2cc(F)c(-c3ccc(F)cc3C(F)F)cc21` [Compound 117, (S)—N-(1-(6-(2-(difluoromethyl)-4-fluorophenyl)-5-fluoro-1-neopentyl-1H-indol-3-yl)-2,2-difluoroethyl)cyclopropanesulfonamide], the EC50 was below 100 nM.

As for `CC(C)(C)Cn1cc([C@H](NS(=O)(=O)C2CC2)C(F)F)c2ccc(-c3c(C(F)F)ccnc3C#N)cc21` [Compound 118, (S)—N-(1-(6-(2-cyano-4-(difluoromethyl)pyridin-3-yl)-1-neopentyl-1H-indol-3-yl)-2,2-difluoroethyl)cyclopropanesulfonamide], the EC50 is below 100 nM.

As to `CC(C)(C)Cn1cc([C@H](NS(=O)(=O)C2CC2)C(F)F)c2ccc(-c3cc(F)cnc3C(F)F)cc21` [Compound 119, (S)—N-(1-(6-(2-(difluoromethyl)-5-fluoropyridin-3-yl)-1-neopentyl-1H-indol-3-yl)-2,2-difluoroethyl)cyclopropanesulfonamide], the EC50 was below 100 nM.

In the case of `Cc1ncnc(C(F)F)c1-c1ccc2c([C@H](NS(=O)(=O)C3CC3)C(F)F)cn(CC(C)(C)C)c2c1` [Compound 120, (S)—N-(1-(6-(4-(difluoromethyl)-6-methylpyrimidin-5-yl)-1-neopentyl-1H-indol-3-yl)-2,2-difluoroethyl)cyclopropanesulfonamide], the EC50 was below 100 nM.

Consider `CC(C)(C)Cn1cc([C@H](NS(=O)(=O)C2CC2)C(F)F)c2cc(F)c(-c3c(C(F)F)ccnc3C#N)cc21` [Compound 122, N-((1S)-1-(6-(2-cyano-4-(difluoromethyl)pyridin-3-yl)-5-fluoro-1-neopentyl-1H-indol-3-yl)-2,2-difluoroethyl)cyclopropanesulfonamide], for which the EC50 is below 100 nM.

As for `CC(C)(C)Cn1cc([C@H](NS(=O)(=O)C2CC2)C(F)F)c2cc(F)c(-c3cc(F)cnc3C(F)F)cc21` [Compound 123, (S)—N-(1-(6-(2-(difluoromethyl)-5-fluoropyridin-3-yl)-5-fluoro-1-neopentyl-1H-indol-3-yl)-2,2-difluoroethyl)cyclopropanesulfonamide], the EC50 was below 100 nM.

For the compound `Cn1ncc(C(F)F)c1-c1cc2c(cc1F)c([C@H](NS(=O)(=O)C1CC1)C(F)F)cn2CC(C)(C)C` [Compound 125, (S)—N-(1-(6-(4-(difluoromethyl)-1-methyl-1H-pyrazol-5-yl)-5-fluoro-1-neopentyl-1H-indol-3-yl)-2,2-difluoroethyl)cyclopropanesulfonamide], the concentration giving a half-maximal response (EC50) was below 100 nM.

As to `Cc1ccnc(C(F)F)c1-c1cc2c(cc1F)c([C@H](NS(=O)(=O)C1CC1)C(F)F)cn2CC(C)(C)C` [Compound 127, N-((1S)-1-(6-(2-(difluoromethyl)-4-methylpyridin-3-yl)-5-fluoro-1-neopentyl-1H-indol-3-yl)-2,2-difluoroethyl)cyclopropanesulfonamide], the EC50 is below 100 nM.

On to `Cc1ccnc(C(F)F)c1-c1ccc2c([C@H](NS(=O)(=O)C3CC3)C(F)F)cn(CC(C)(C)C)c2c1` [Compound 128, (S)—N-(1-(6-(2-(difluoromethyl)-4-methylpyridin-3-yl)-1-neopentyl-1H-indol-3-yl)-2,2-difluoroethyl)cyclopropanesulfonamide], for which the EC50 is below 100 nM.

As to `Cc1ccnc(C(F)(F)F)c1-c1cc2c(cc1F)c([C@H](NS(=O)(=O)C1CC1)C(F)F)cn2CC(C)(C)C` [Compound 129, N-((1S)-2,2-difluoro-1-(5-fluoro-6-(4-methyl-2-(trifluoromethyl)pyridin-3-yl)-1-neopentyl-1H-indol-3-yl)ethyl)cyclopropanesulfonamide], the EC50 was below 100 nM.

Consider `Cc1nccc(C(F)(F)F)c1-c1cc2c(cc1F)c([C@H](NS(=O)(=O)C1CC1)C(F)F)cn2CC(C)(C)C` [Compound 130, N-((1S)-2,2-difluoro-1-(5-fluoro-6-(2-methyl-4-(trifluoromethyl)pyridin-3-yl)-1-neopentyl-1H-indol-3-yl)ethyl)cyclopropanesulfonamide], for which the EC50 is below 100 nM.

For the compound `CC(C)(C)Cn1cc([C@H](NS(=O)(=O)C2CC2)C(F)F)c2cc(F)c(-c3c(F)ccnc3C(F)(F)F)cc21` [Compound 131, N-((1S)-2,2-difluoro-1-(5-fluoro-6-(4-fluoro-2-(trifluoromethyl)pyridin-3-yl)-1-neopentyl-1H-indol-3-yl)ethyl)cyclopropanesulfonamide], the EC50 is below 100 nM.

For `CC(C)(C)Cn1cc([C@H](NS(=O)(=O)C2CC2)C(F)F)c2cc(F)c(-c3cc(F)cnc3C(F)(F)F)cc21` [Compound 132, (S)—N-(2,2-difluoro-1-(5-fluoro-6-(5-fluoro-2-(trifluoromethyl)pyridin-3-yl)-1-neopentyl-1H-indol-3-yl)ethyl)cyclopropanesulfonamide], the EC50 is below 100 nM.

As to `CC(C)(C)Cn1cc([C@H](NS(=O)(=O)C2CC2)C(F)F)c2cc(F)c(-c3cnc(C#N)cc3C(F)(F)F)cc21` [Compound 133, (S)—N-(1-(6-(6-cyano-4-(trifluoromethyl)pyridin-3-yl)-5-fluoro-1-neopentyl-1H-indol-3-yl)-2,2-difluoroethyl)cyclopropanesulfonamide], the EC50 was below 100 nM.

On to `CC(C)(C)Cn1cc([C@H](NS(=O)(=O)C2CC2)C(F)F)c2cc(F)c(-c3ncc(F)cc3C(F)F)cc21` [Compound 134, (S)—N-(1-(6-(3-(difluoromethyl)-5-fluoropyridin-2-yl)-5-fluoro-1-neopentyl-1H-indol-3-yl)-2,2-difluoroethyl)cyclopropanesulfonamide], for which the EC50 was below 100 nM.

Regarding `CC(C)(C)Cn1cc([C@H](NS(=O)(=O)C2CCC2)C(F)F)c2cc(F)c(-c3c(C(F)(F)F)ccnc3C#N)cc21` [Compound 135, N-((1S)-1-(6-(2-cyano-4-(trifluoromethyl)pyridin-3-yl)-5-fluoro-1-neopentyl-1H-indol-3-yl)-2,2-difluoroethyl)cyclobutanesulfonamide], the EC50 was below 100 nM.

As to `CC(C)(C)Cn1cc([C@H](NS(=O)(=O)C2CCC2)C(F)F)c2cc(F)c(-c3c(C#N)cccc3C(F)(F)F)cc21` [Compound 136, N-((1S)-1-(6-(2-cyano-6-(trifluoromethyl)phenyl)-5-fluoro-1-neopentyl-1H-indol-3-yl)-2,2-difluoroethyl)cyclobutanesulfonamide], the EC50 was below 100 nM.

Take `CC(C)(C)Cn1cc([C@H](NS(=O)(=O)C2CCC2)C(F)F)c2cc(F)c(-c3cc(F)cnc3C(F)(F)F)cc21` [Compound 137, (S)—N-(2,2-difluoro-1-(5-fluoro-6-(5-fluoro-2-(trifluoromethyl)pyridin-3-yl)-1-neopentyl-1H-indol-3-yl)ethyl)cyclobutanesulfonamide]: the EC50 is below 100 nM.

In the case of `CC(C)(C)Cn1cc([C@H](NS(=O)(=O)C2CC2)C(F)F)c2cc(F)c(-c3ncc(C#N)cc3C(F)(F)F)cc21` [Compound 138, (S)—N-(1-(6-(5-cyano-3-(trifluoromethyl)pyridin-2-yl)-5-fluoro-1-neopentyl-1H-indol-3-yl)-2,2-difluoroethyl)cyclopropanesulfonamide], the EC50 is below 100 nM.

With `Cc1ccc(-c2cc3c(cc2F)c([C@H](NS(=O)(=O)C2CC2)C(F)F)cn3CC(C)(C)C)c(C(F)(F)F)n1` [Compound 139, (S)—N-(2,2-difluoro-1-(5-fluoro-6-(6-methyl-2-(trifluoromethyl)pyridin-3-yl)-1-neopentyl-1H-indol-3-yl)ethyl)cyclopropanesulfonamide], the EC50 was below 100 nM.
